Results reported in PubChem BioAssay AID2060888 (Molecular Pharmacology Branch, DTP, NCI, 2025).

Tested on: 695427-040-R-J1-PDC complex spheroid viability
Assay: Anticancer human tumor 695427-040-R-J1-PDC patient-derived colon adenocarcinoma cell line growth inhibition [RAS]
Details: for viability, T/C: stronger effect = lower value; active = viability on the fitted dose curve at most 10% of control; inactive = the rest
Method in brief: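 Agents were tested in combination matrices in half-log decrements from a top concentration at or near clinical Cmax (10 microM if undetermined). Targets were multi-cell spheroids of tumour lines plus HUVEC and MSC stromal cells.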
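Note: viability read after seven days of drug exposure.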
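Throughout, for viability, T/C: 100% = DMSO vehicle control viability.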

CC(Nc1ccc2c(c1)OCCn1cc(N3C(=O)OCC3C(F)F)nc1-2)C(N)=O (stereo not given) + C=CC(=O)N1CCN(c2nc(OCC3CCCN3C)nc3c(F)c(-c4nc(N)cc(C)c4C(F)(F)F)c(Cl)cc23)C(C)C1
1580 nM: IC50 (curve of first compound, second compound 0.0316 µM)
2030 nM: IC50 (curve of first compound, second compound 1 µM)
inactive: viability, T/C (second compound 0.00316 µM, first compound 0.0316 µM) 89.6% | viability, T/C (second compound 0.00316 µM, first compound 0.1 µM) 68.5% | viability, T/C (second compound 0.00316 µM, first compound 0.316 µM) 62.4% | viability, T/C (second compound 0.00316 µM, first compound 1 µM) 54.2% | viability, T/C (second compound 0.00316 µM, first compound 3.16 µM) 46.8% | viability, T/C (second compound 0.00316 µM, first compound 10 µM) 36.2% | viability, T/C (second compound 0.01 µM, first compound 0.0316 µM) 95.5% | viability, T/C (second compound 0.01 µM, first compound 0.1 µM) 75.5% | viability, T/C (second compound 0.01 µM, first compound 0.316 µM) 56.5% | viability, T/C (second compound 0.01 µM, first compound 1 µM) 50.2% | viability, T/C (second compound 0.01 µM, first compound 3.16 µM) 43.5% | viability, T/C (second compound 0.01 µM, first compound 10 µM) 41.1% | viability, T/C (second compound 0.0316 µM, first compound 0.0316 µM) 90.7% | viability, T/C (second compound 0.0316 µM, first compound 0.1 µM) 76.7% | viability, T/C (second compound 0.0316 µM, first compound 0.316 µM) 65.2% | viability, T/C (second compound 0.0316 µM, first compound 1 µM) 51.2% | viability, T/C (second compound 0.0316 µM, first compound 3.16 µM) 47% | viability, T/C (second compound 0.0316 µM, first compound 10 µM) 38.4% | viability, T/C (second compound 0.1 µM, first compound 0.0316 µM) 85.2% | viability, T/C (second compound 0.1 µM, first compound 0.1 µM) 71% | viability, T/C (second compound 0.1 µM, first compound 0.316 µM) 64.3% | viability, T/C (second compound 0.1 µM, first compound 1 µM) 50.4% | viability, T/C (second compound 0.1 µM, first compound 3.16 µM) 49.6% | viability, T/C (second compound 0.1 µM, first compound 10 µM) 43.3% | viability, T/C (second compound 0.316 µM, first compound 0.0316 µM) 87.2% | viability, T/C (second compound 0.316 µM, first compound 0.1 µM) 73.2% | viability, T/C (second compound 0.316 µM, first compound 0.316 µM) 66.2% | viability, T/C (second compound 0.316 µM, first compound 1 µM) 55.9% | viability, T/C (second compound 0.316 µM, first compound 3.16 µM) 50.8% | viability, T/C (second compound 0.316 µM, first compound 10 µM) 44.4% | viability, T/C (second compound 1 µM, first compound 0.0316 µM) 85.6% | viability, T/C (second compound 1 µM, first compound 0.1 µM) 71% | viability, T/C (second compound 1 µM, first compound 0.316 µM) 68% | viability, T/C (second compound 1 µM, first compound 1 µM) 52% | viability, T/C (second compound 1 µM, first compound 3.16 µM) 47.8% | viability, T/C (second compound 1 µM, first compound 10 µM) 40.8%
2010 nM: IC50 (curve of first compound, second compound 0.1 µM)
3130 nM: IC50 (curve of first compound, second compound 0.316 µM)
1470 nM: IC50 (curve of first compound, second compound 0.00316 µM)
838 nM: IC50 (curve of first compound, second compound 0.01 µM)

CCc1c2c(nc3ccc(O)cc13)-c1cc3c(c(=O)n1C2)COC(=O)[C@]3(O)CC + CCn1c(-c2cccnc2C(C)OC)c2c3cc(ccc31)N1CCOC(CC(NC(=O)C(C(C)C)N(C)C(=O)C3(F)CCN(C(=O)C#CC(C)(C)N(C)C)CC3)C(=O)N3CCCC(N3)C(=O)OCC(C)(C)C2)C1
131 nM: IC50 (curve of first compound, second compound 0.003 µM)
69.2 nM: IC50 (curve of first compound, second compound 0.03 µM)
79.1 nM: IC50 (curve of first compound, second compound 0.0949 µM)
113 nM: IC50 (curve of first compound, second compound 0.000949 µM)
95.2 nM: IC50 (curve of first compound, second compound 0.3 µM)
inactive: viability, T/C (second compound 0.000949 µM, first compound 0.000949 µM) 97.1% | viability, T/C (second compound 0.000949 µM, first compound 0.003 µM) 93.3% | viability, T/C (second compound 0.000949 µM, first compound 0.00949 µM) 84.2% | viability, T/C (second compound 0.000949 µM, first compound 0.03 µM) 61.5% | viability, T/C (second compound 0.000949 µM, first compound 0.0949 µM) 56.7% | viability, T/C (second compound 0.000949 µM, first compound 0.3 µM) 37.7% | viability, T/C (second compound 0.003 µM, first compound 0.000949 µM) 91.7% | viability, T/C (second compound 0.003 µM, first compound 0.003 µM) 84.6% | viability, T/C (second compound 0.003 µM, first compound 0.00949 µM) 66.1% | viability, T/C (second compound 0.003 µM, first compound 0.03 µM) 64.1% | viability, T/C (second compound 0.003 µM, first compound 0.0949 µM) 53% | viability, T/C (second compound 0.003 µM, first compound 0.3 µM) 43.1% | viability, T/C (second compound 0.00949 µM, first compound 0.000949 µM) 98.3% | viability, T/C (second compound 0.00949 µM, first compound 0.003 µM) 76.8% | viability, T/C (second compound 0.00949 µM, first compound 0.00949 µM) 65.8% | viability, T/C (second compound 0.00949 µM, first compound 0.03 µM) 63.4% | viability, T/C (second compound 0.00949 µM, first compound 0.0949 µM) 36.5% | viability, T/C (second compound 0.00949 µM, first compound 0.3 µM) 35.8% | viability, T/C (second compound 0.03 µM, first compound 0.000949 µM) 79.8% | viability, T/C (second compound 0.03 µM, first compound 0.003 µM) 96.4% | viability, T/C (second compound 0.03 µM, first compound 0.00949 µM) 80.1% | viability, T/C (second compound 0.03 µM, first compound 0.03 µM) 71.6% | viability, T/C (second compound 0.03 µM, first compound 0.0949 µM) 41.7% | viability, T/C (second compound 0.03 µM, first compound 0.3 µM) 31.5% | viability, T/C (second compound 0.0949 µM, first compound 0.000949 µM) 87.3% | viability, T/C (second compound 0.0949 µM, first compound 0.003 µM) 79.5% | viability, T/C (second compound 0.0949 µM, first compound 0.00949 µM) 81.6% | viability, T/C (second compound 0.0949 µM, first compound 0.03 µM) 49.7% | viability, T/C (second compound 0.0949 µM, first compound 0.0949 µM) 57% | viability, T/C (second compound 0.0949 µM, first compound 0.3 µM) 24.2% | viability, T/C (second compound 0.3 µM, first compound 0.000949 µM) 82.7% | viability, T/C (second compound 0.3 µM, first compound 0.003 µM) 101% | viability, T/C (second compound 0.3 µM, first compound 0.00949 µM) 69.7% | viability, T/C (second compound 0.3 µM, first compound 0.03 µM) 58.8% | viability, T/C (second compound 0.3 µM, first compound 0.0949 µM) 57% | viability, T/C (second compound 0.3 µM, first compound 0.3 µM) 31.2%
49.3 nM: IC50 (curve of first compound, second compound 0.00949 µM)

CCN1CCN(Cc2ccc(Nc3ncc(F)c(-c4cc(F)c5nc(C)n(C(C)C)c5c4)n3)nc2)CC1
inactive: viability, T/C (compound 0.00316 µM) 102% [middle of 4 runs] | viability, T/C (compound 0.01 µM) 84.3% [middle of 4 runs] | viability, T/C (compound 0.0316 µM) 92.2% [middle of 4 runs] | viability, T/C (compound 0.1 µM) 102% [middle of 4 runs] | viability, T/C (compound 0.316 µM) 98.7% [middle of 4 runs]
> 1000 nM: IC50 (curve of compound)
